This is an account of results in PMC12566971, “Polyprenylated Acylphloroglucinols from Hypericum rochelii and Hypericum olympicum—Cytotoxic Effects on Non-Tumorigenic Cell Lines and Antibacterial Potential” (Pharmaceuticals, 2025).

Converted amounts (≈) assume the structure as drawn. “And” between values parts separate entries of the source, which are not always exact repeats. Equal entries are not always repeated.

The subject of data set [1] is S. aureus biofilm. The data set can be described thus: Biofilm assay. Type of data set: cell-based, Staphylococcus aureus. Here is the method:
The biofilm assay was performed according to the protocol of Stepanović [138], as already described.

Data set [2] has as its system rabbit skin. As to conditions: in vivo. As for the experimental part: Dermal toxicological screening of the chosen two non-toxic active substances was performed on animals. This was carried out according to the European standard ISO 10993-10: 2010 (E): Biological evaluation of medical devices, Part 10 Skin irritation and sensitization tests (6. […] The animal study protocol was approved by the opinion No. 148 of 09.04.2019 of the Ethics Committee of the Bulgarian Food Safety Agency of the Ministry of Agriculture, Food, and Forestry. The Permit to work with experimental rabbits No. 232 was valid until 11.04.2024 and issued on the basis of Article 155, paragraph 7, of the Veterinary Medical Activity Act. The albino rabbits were cared for as specified in ISO 10993-2 (withdrawn; superseded by ISO 10993-2:2022) and Ordinance No. 20 (State Gazette of Bulgaria, No. 87, 9 November 2012). Four square test sites were made on the back of the rabbit by clipping the fur. The samples were applied to 2 of them, while the other 2 were used as a positive control (10–20% SDS) and a negative control (the buffer in which the agents were diluted, i.e., PBS). The exposure time was 4 h, and at the end of it the appearance was checked for erythema (redness) and edema. Additional inspections were performed at hours 24, 48, and 72.

For data set [3], the system named is Methicillin-Resistant S. aureus (MRSA). As to conditions: ref [4],[29]; cited from earlier work.
Data set [4] has as its system CCL-1 cells. The data set can be described thus: Colony-forming unit assay. Type of data set: cell-based, murine. To be noted: for Percentage of colonies, CCL-1: untreated control = 100%. Here is the method:
The CFU was also performed according to ISO 10993-5 [56]. Briefly, the cell lines were seeded at a concentration like for the MTT assay in 6-well plates, treated with the chosen agents and left for a 48 h exposure. Then, the cells were trypsinized, and pre-calculated 20 to 100 µL from the cell suspension was added to a sterile Roswell Park Memorial Institute (RPMI) medium (RPMI-A, Capricorn Scientific), containing 20% of the respective cell culture medium for each cell line but with a final concentration of FBS and L-glutamine of 40–42% and 0.8–1.2 mM, respectively, 0.2% NaHCO3 (S6297, Merck Sigma-Aldrich, Saint Louis, MI, USA), and 0.8% methylcellulose (M0512, Merck Sigma-Aldrich) for viscosity. The viscous cell solution was vortexed for 10 s and dispensed in an equal number of cells per well in 6-well plates (1.2 mL per well) in triplicate for each concentration of treatment. HaCaT and HEK-293 were seeded at a concentration of 2500 cells per mL, CCL-1 and HEPG2—2000 cells per mL, and HGF—1000 cells per mL. The plates were incubated for 6 to 10 days, and when the colonies reached 20 to 50 cells per colony, 100 µL MTT salt solution was added to each well. After half an hour, the stained colonies were counted manually using a microscope.

For data set [5], the system named is icaA gene in MRSA. The data set can be described thus: Real-time PCR, relative gene expression. As to conditions: control = 1. Type of data set: cell-based, Staphylococcus aureus. Here is the method: (§1) The preparation of the samples for the RNA isolation was carried out as for the biofilm assay. RNA from the treated samples and the untreated positive MRSA control was isolated with the help of the Environmental DNA & RNA Purification Kit (E3572, EURx Ltd., Gdańsk, Poland). […] A total of 50 µL lysozyme (20 mg/mL) from chicken egg white (L6876, Merck Sigma-Aldrich) and 10 µL lysostaphin (L4402, Merck Sigma-Aldrich) from Staphylococcus staphylolyticus (200 U/mL) were added per sample. […] The samples, being bacterial, were subjected to cDNA synthesis using random hexamer primers and reverse transcriptase enzymes. The obtained cDNA samples were stored at −80 °C and used for real-time PCR.
(§2) For normalization of the data, the rho gene was used as a housekeeping gene.

The subject of data set [6] is icaD gene in MRSA. The data set can be described thus: Real-time PCR, relative gene expression. To be noted: control = 1. Type of data set: cell-based, Staphylococcus aureus. As for the experimental part: as §1, §2
A general note: In qPCR the cycle at which signal appears reflects the starting amount.

Turning to `CC(C)=CCCC1(C)C(CC=C(C)C)CC2C(=O)C1(C(=O)C(C)C)C(=O)C(CC=C(C)C)=C2O` (stereo not shown) [Olympiforin B], the IC50 in data set [1] (Staphylococcus aureus, read-out: Median Biofilm Inhibitory Concentration (MBIC50), S. aureus) was 0.07 µg/mL and 150 nM. Besides, the “Minimum Biofilm Inhibitory Concentration (MBIC), S. aureus” value in data set [1] (no visible biofilm) was 1 (MIC) µg/mL. Moreover, in data set [2], the “Skin irritation on rabbits” value is recorded as “do not cause skin toxicity”. Besides, in data set [3], the “MIC on bacteria, MRSA” value is recorded as 1 µg/mL (≈ 2.13 µM). Besides, the “Colonies per well for CCL-1 cells” value in data set [4] (1/2 × IC50, 48 h exposure) is 167; in data set [4] (2 × IC50, 48 h exposure), 61; in data set [4] (IC50, 48 h exposure), 62. Further, the “Percentage of colonies, CCL-1” value came to 106% in data set [4] (1/2 × IC50), 39% in data set [4] (2 × IC50) and 40% in data set [4] (IC50). Further, the entries for the “Relative gene expression, icaA” value in data set [5] (1/8 × MIC), in data set [5] (1/16 × MIC) and in data set [5] (1/32 × MIC) were 0.37, 0.53 and 0.28, respectively. Further, the “Relative gene expression, icaD” value was determined as 0.41 in data set [6] (1/8 × MIC), 0.82 in data set [6] (1/16 × MIC) and 0.95 in data set [6] (1/32 × MIC).
